Source: patent publication US10799507B2, “5-(7H-pyrrolo[2,3-d]pyrimidin-4-yl)-5-azaspiro[2.5]octane-8-carboxylic acid derivatives as novel JAK kinase inhibitors” (LEO Pharma A/S, priority 2017, dated 2020)

What was measured:
[1] = in vitro metabolic stability in human liver microsomes; assay type: in vitro ADME; conditions: human, liver microsomes, 0.5 μM compound, 0.5 mg/mL microsomes, NADPH, 40 min, 37° C.; read-out: Human liver microsome Clapp (apparent intrinsic clearance)
Method in brief: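 Compounds at 0.5 μM incubated in duplicate with human liver microsomes (0.5 mg/mL), phosphate buffer and NADPH at 37 °C for 40 min, sampled at 0, 5, 10, 20, 40 min into cold acetonitrile. LC-TOF-MS depletion gave elimination rate constant, from which apparent intrinsic clearance (Clapp) was calculated.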

[2] = target: JAK2 (Homo sapiens (Human), UniProt O60674); assay: JAK kinase assay (HTRF), JAK2; assay type: biochemical; conditions: catalytic domain, ATP at Km (4 μM)
JAK2, sequence (O60674 849-1124): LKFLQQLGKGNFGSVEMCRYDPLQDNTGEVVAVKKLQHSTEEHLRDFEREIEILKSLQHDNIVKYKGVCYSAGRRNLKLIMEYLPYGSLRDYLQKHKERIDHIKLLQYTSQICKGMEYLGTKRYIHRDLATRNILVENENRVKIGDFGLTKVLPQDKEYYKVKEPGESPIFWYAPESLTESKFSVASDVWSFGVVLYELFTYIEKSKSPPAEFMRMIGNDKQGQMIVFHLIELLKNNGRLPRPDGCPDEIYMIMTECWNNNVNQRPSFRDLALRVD
Method in brief: (§1)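 Catalytic-domain human JAK1 (GST-tagged, aa 850-1154) or His-tagged JAK2, baculovirus-expressed, phosphorylated 1 µM biotinylated TK peptide at Km ATP (JAK1 7 µM, 10 mM MgCl2, 50 nM SEB; JAK2 4 µM, 5 mM MgCl2) in pH 7.0 Hepes, 20-30 min RT. EDTA stop; overnight streptavidin-XL665/cryptate HTRF read.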

[3] = target: TYK2 (Homo sapiens (Human), UniProt P29597); assay: JAK kinase assay (HTRF), TYK2; assay type: biochemical; conditions: catalytic domain, ATP at Km (13 μM)
TYK2, sequence (P29597 871-1187): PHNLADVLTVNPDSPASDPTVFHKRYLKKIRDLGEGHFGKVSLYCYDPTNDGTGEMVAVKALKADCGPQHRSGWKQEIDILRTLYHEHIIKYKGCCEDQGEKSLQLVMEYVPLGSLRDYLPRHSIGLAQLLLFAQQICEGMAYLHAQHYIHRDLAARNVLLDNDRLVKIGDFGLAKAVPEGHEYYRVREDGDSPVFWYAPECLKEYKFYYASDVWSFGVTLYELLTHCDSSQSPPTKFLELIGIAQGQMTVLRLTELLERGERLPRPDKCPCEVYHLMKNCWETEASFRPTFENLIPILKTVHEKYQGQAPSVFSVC
Method in brief: (§2)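 Catalytic-domain human kinases, GST-tagged TYK2 (aa 871-1187) and His-tagged JAK3, phosphorylate 1 μM TK Substrate-Biotin for 20-30 min at RT in 50 mM Hepes pH 7.0, 5 mM MgCl2, ATP at Km (TYK2 13 μM with 50 nM SEB; JAK3 2 μM). Phosphorylation detected by HTRF.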

[4] = target: JAK3 (Homo sapiens (Human), UniProt P52333); assay: JAK kinase assay (HTRF), JAK3; assay type: biochemical; conditions: catalytic domain, ATP at Km (2 μM)
JAK3, sequence (P52333 822-1111): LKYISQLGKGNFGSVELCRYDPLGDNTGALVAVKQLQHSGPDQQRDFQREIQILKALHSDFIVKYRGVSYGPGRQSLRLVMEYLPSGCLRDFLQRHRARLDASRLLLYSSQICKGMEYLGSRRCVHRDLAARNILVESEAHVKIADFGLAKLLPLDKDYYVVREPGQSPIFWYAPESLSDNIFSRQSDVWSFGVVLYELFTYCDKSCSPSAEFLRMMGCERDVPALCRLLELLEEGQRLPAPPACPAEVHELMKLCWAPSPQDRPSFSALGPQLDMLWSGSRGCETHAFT
Method in brief: as §2

[5] = target: JAK1 (Homo sapiens (Human), UniProt P23458); assay: JAK kinase assay (HTRF), JAK1; assay type: biochemical; conditions: catalytic domain, ATP at Km (7 μM)
JAK1, sequence (P23458 850-1154): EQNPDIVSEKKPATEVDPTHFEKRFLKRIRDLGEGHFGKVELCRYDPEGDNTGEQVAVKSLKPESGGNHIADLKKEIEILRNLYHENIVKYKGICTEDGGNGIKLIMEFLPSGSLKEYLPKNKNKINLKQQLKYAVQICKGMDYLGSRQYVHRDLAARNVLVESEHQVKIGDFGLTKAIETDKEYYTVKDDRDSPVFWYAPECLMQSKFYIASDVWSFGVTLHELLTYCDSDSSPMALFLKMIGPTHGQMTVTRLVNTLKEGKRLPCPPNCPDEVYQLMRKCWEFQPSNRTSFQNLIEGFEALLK
Method in brief: as §1

Structure (SMILES)	CLint scaled at 0.5 μM [1] [mL/min/kg]	EC50 [2] [nM]	EC50 [3] [nM]	EC50 [4] [nM]	EC50 [5] [nM]
O=C(NC[C@@H](O)C1CCCCC1)[C@H]1CCN(c2ncnc3[nH]ccc23)CC12CC2 [Example 4, (8S)-N-[(2S)-2-cyclohexyl-2-hydroxy-ethyl]-5-(7H-pyrrolo[2,3-d]pyrimidin-4-yl)-5-azaspiro[2.5]octane-8-carboxamide]	> 200	1.2	4	3.4	0.5
O=C(OCC1(CO)CC1)[C@H]1CCN(c2ncnc3[nH]ccc23)CC12CC2 [Example 156, [1-(hydroxymethyl)cyclopropyl]methyl (8S)-5-(7H-pyrrolo[2,3-d]pyrimidin-4-yl)-5-azaspiro[2.5]octane-8-carboxylate]	94	5.4	30	20.4	4
O=C(NCC(O)c1ccc(F)cn1)[C@H]1CCN(c2ncnc3[nH]ccc23)CC12CC2 (stereo partly drawn) [Example 38, (8S)-N-[2-(5-fluoro-2-pyridyl)-2-hydroxy-ethyl]-5-(7H-pyrrolo[2,3-d]pyrimidin-4-yl)-5-azaspiro[2.5]octane-8-carboxamide]	73	9	32.1	33.6	2.2
O=C(N[C@@H](CO)C1CCCCC1)[C@H]1CCN(c2ncnc3[nH]ccc23)CC12CC2 [Example 24, (8S)-N-[(1R)-1-cyclohexyl-2-hydroxy-ethyl]-5-(7H-pyrrolo[2,3-d]pyrimidin-4-yl)-5-azaspiro[2.5]octane-8-carboxamide]	159	2.7	19.9	10.9	1.3
C[C@H](NC(=O)[C@H]1CCN(c2ncnc3[nH]ccc23)CC12CC2)[C@@H](O)c1ccc(F)cc1 [Example 6, (8S)-N-[(1S,2S)-2-(4-fluorophenyl)-2-hydroxy-1-methyl-ethyl]-5-(7H-pyrrolo[2,3-d]pyrimidin-4-yl)-5-azaspiro[2.5]octane-8-carboxamide]	> 200	1.4	7	7.4	0.6
O=C(OCC1CC(F)(F)C1)C1CCN(c2ncnc3[nH]ccc23)CC12CC2 (stereo not shown) [Example 153, (3,3-difluorocyclobutyl)methyl 5-(7H-pyrrolo[2,3-d]pyrimidin-4-yl)-5-azaspiro[2.5]octane-8-carboxylate]	160	3.2	68	8.9	2.3
O=C(OCC1(CO)CCCC1)[C@H]1CCN(c2ncnc3[nH]ccc23)CC12CC2 [Example 159, [1-(hydroxymethyl)cyclopentyl]methyl (8S)-5-(7H-pyrrolo[2,3-d]pyrimidin-4-yl)-5-azaspiro[2.5]octane-8-carboxylate]	> 200	1.3	5.1	3.1	0.5
O=C(NC[C@@H](O)c1ccc(F)cn1)[C@H]1CCN(c2ncnc3[nH]ccc23)CC12CC2 [Example 12, (8S)-N-[(2R)-2-(5-fluoro-2-pyridyl)-2-hydroxy-ethyl]-5-(7H-pyrrolo[2,3-d]pyrimidin-4-yl)-5-azaspiro[2.5]octane-8-carboxamide]	143	4	13.9	26.5	0.8
